# Tests used:
# c-kit wild = c-kit wild (Homo sapiens, UniProt P10721); settings: shown in WO 02/080925; cited from earlier work
# [1] = tested on: lymphoid BaF/3 murine cell line transfected with the D816V mutant form of the human c-kit; experiment: proliferation of BaF/3 cells transfected with D816V c-kit; assay type: cell-based; settings: not affected up to 1 microM, inhibited above 1 microM as in BMMC
# Experimental: (§1) At 24, 48 and 72 hours, the number of viable cells was determined in each condition using the trypan blue exclusion assay.
# [2] = target: 816 mutated c-kit (D816V mutant form of the human c-kit receptor) (Homo sapiens, UniProt P10721, D816V)
# Chain of 816 mutated c-kit (D816V mutant form of the human c-kit receptor) (P10721 26-976 D816V): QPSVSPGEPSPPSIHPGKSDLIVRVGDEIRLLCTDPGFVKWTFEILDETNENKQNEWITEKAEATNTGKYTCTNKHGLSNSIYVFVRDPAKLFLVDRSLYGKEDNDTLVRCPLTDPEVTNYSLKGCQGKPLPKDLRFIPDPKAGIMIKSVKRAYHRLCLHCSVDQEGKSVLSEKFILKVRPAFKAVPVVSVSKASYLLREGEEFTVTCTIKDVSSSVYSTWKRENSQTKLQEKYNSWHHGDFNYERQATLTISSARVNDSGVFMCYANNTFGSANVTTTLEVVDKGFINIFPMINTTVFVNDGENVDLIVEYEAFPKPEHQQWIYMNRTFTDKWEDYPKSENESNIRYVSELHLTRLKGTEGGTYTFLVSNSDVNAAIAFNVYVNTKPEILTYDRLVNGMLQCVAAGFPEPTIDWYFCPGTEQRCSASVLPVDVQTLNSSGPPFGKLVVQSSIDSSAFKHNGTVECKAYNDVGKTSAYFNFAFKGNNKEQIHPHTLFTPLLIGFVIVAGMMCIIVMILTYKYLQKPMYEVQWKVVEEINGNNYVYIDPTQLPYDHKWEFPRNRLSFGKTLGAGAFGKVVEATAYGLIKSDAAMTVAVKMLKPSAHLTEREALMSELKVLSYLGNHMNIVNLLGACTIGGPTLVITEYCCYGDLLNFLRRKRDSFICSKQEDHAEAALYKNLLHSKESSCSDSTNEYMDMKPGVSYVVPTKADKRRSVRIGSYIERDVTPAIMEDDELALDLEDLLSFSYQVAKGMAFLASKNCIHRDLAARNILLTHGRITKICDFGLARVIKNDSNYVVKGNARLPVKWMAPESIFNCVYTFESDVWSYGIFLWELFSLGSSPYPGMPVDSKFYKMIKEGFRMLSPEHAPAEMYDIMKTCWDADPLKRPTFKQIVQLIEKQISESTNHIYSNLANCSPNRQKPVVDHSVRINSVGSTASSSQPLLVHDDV
# Experimental: as §1
# [3] = tested on: juxtamembrane mutated c-kit; settings: shown in WO 02/080925; cited from earlier work
# [4] = tested on: mouse bone marrow-derived mast cell line (BMMC) expressing the mutant D816V form of the human c-kit; experiment: proliferation of BMMC line, viable cell count by trypan blue exclusion assay; assay type: cell-based; settings: 24, 48 and 72 hours
# Experimental: as §1
# Chain of c-kit wild (P10721 26-976): as the sequence (P10721 26-976 D816V) above, with V791D counted along it
compound,measurement,setting,value
Cc1ccc(NC(=O)c2ccc(CN3CCN(C)CC3)cc2)cc1Nc1nccc(-c2cccnc2)n1 [STI571],activity on c-kit wild,c-kit wild,active
same,proliferation of BaF/3 cells with D816V human c-kit (same result as BMMC),[1],also observed
same,resistance of the D816V mutant form of the human c-kit receptor,[2]; pharmacological doses,resistant
same,activity on 816 mutated c-kit,[2]; see FIGS. 1 and 2,not active
same,activity on the juxtamembrane mutated c-kit,[3],very active
same,proliferation of the BMMC line with the mutant D816V form of the human c-kit,"[4]; STI-571 under or equal to 1 microM, FIG. 2",not affected
same,proliferation of the BMMC line with the mutant D816V form of the human c-kit,[4]; concentrations of STI-571 above 1 microM (up to 10^-5 M),dose- and time-dependently inhibited
